According to US20220105096A1, “INHIBITORS OF HUMAN IMMUNODEFICIENCY VIRUS REPLICATION” (ViiV HEALTHCARE UK (NO.5) LIMITED, priority 2019, published 2022):

Columns and labels:
[1] = Pharmacokinetic parameters in vivo, rat; parameters: species or system Wistar Han Rats; conditions: Wistar Han, plasma
Experimental: PK was investigated in male CD1 mice, Wistar Han Rats, Cynomolgus monkeys, and Beagle Dogs. Two groups of animals (N=3 per group) received test compound either as an intravenous (IV) dose (1 mg/kg) or by oral gavage (5 mg/kg solution and suspension). Drug was formulated in 90% PEG 400, 10% ethanol for IV administration and in 90% PEG400, 5% ethanol for PO administration. Blood samples were collected at 0.167, 0.25, 0.5, 0.75, 1, 2, 3, 5, 7, 24, 48, 72 and 96 h post dose for IV; 0.25, 0.5, 0.75, 1, 2, 3, 5, 7, 24, 48, 72 and 96 h post dose for oral. Blood samples were collected into K3EDTA tubes and centrifuged at 1500 to 2000×g to obtain plasma. Plasma samples were stored at −20° C. until analysis by LC-MS/MS. All […] samples were injected on an Exion LC 4500 Triple Quad™ LC-MS/MS system. The analytical column used was a Phenomenex C18 (C18, 4.6 mm×50 mm, 5 μm) maintained at room temperature. Mobile Phase A consisted of 0.1% (v/v) formic acid in MilliQ water. Mobile Phase B consisted of 100% methanol. The flow rate was 1 mL/min. […] All LC-MS/MS analysis parameters are captured electronically in the raw data files. The PK parameters were obtained by non-compartmental analysis of plasma concentration vs time data (Phoenix WinNonlin v8). The peak concentration (Cmax) and time for Cmax (Tmax) were recorded directly from experimental observations. The area under the curve from time zero to the last sampling time [AUC0-T] and the area under the curve from time zero to infinity [AUCINF] were calculated using a combination of linear and log trapezoidal summations. The total plasma clearance (CLTp), steady-state volume of distribution (Vss), apparent elimination half-life (T-HALF), and mean residence time (MRT) were estimated after IV administration. Estimations of AUC and T-HALF were made using a minimum of three timepoints with quantifiable concentrations. The absolute oral bioavailability (F) was estimated as the ratio of dose-normalized AUC values following oral and IV doses.

recombinant NL4-3 virus = assay: Antiviral potency in MT-2 cells infected with recombinant NL4-3 Renilla luciferase virus; type: cell-based, HIV; conditions: Human immunodeficiency virus 1, NL43, MT2
Experimental: MT-2 cells, 293T cells and the proviral DNA clone of NL4-3 virus were obtained from the NIH AIDS Research and Reference Reagent Program. MT-2 cells were propagated in RPMI 1640 media supplemented with 10% heat inactivated fetal bovine serum (FBS), […]. The 293T cells were propagated in DMEM media supplemented with 10% heat inactivated FBS, […] penicillin G and […] streptomycin. A recombinant NL4-3 proviral clone, in which a section of the nef gene was replaced with the Renilla luciferase gene, was used to make the reference virus used in these studies. The recombinant virus was prepared through transfection of the recombinant NL4-3 proviral clone into 293T cells using Transit-293 Transfection Reagent from Mirus Bio LLC (Madison, Wis.). Supernatant was harvested after 2-3 days and the amount of virus present was titered in MT-2 cells using luciferase enzyme activity as a marker by measuring luciferase enzyme activity. Luciferase was quantitated using the EnduRen Live Cell Substrate from Promega (Madison, Wis.). Antiviral activities of compounds toward the recombinant virus were quantified by measuring luciferase activity in MT-2 cells infected for 4-5 days with the recombinant virus in the presence of serial dilutions of the compound. […]

human hepatocytes = assay: Metabolism in human hepatocytes; type: in vitro ADME; conditions: 0.5 μM
Experimental: Cryopreserved hepatocytes in suspension from human, monkey, dog, rat and mouse were thawed and diluted in pre-warmed William's Medium E (pH 7.4). Aliquots of the hepatocyte suspension were added to test compound working solutions prepared in pre-warmed William's Medium E (pH 7.4) to achieve final concentrations of 0.5 μM in 0.5×10^6 cells per milliliter and ≤0.25% DMSO. These samples were incubated at 37° C. with 5% carbon dioxide and shaking. The incubations were performed in singlet. At time points 0, 10, 30, 60, 120 and 240 minutes, a 50 μL aliquot of the incubation mixtures was removed and added to a 100 μL solution of acetonitrile containing internal standard and the mixture was then centrifuged at 4° C. and 3500 rpm for 15 minutes. Following completion of the experiment, samples were analyzed by LC-MS/MS. Metabolic stability results were reported as a percentage of parent test compound remaining. This percentage is calculated by dividing the LCMS peak area of test compound following incubation (tx) by the LCMS peak area of test compound at time-zero (t0) just prior to incubation.
The elimination rate constant (k, min^−1) is calculated using nonlinear regression fitting with the following equation: […]
where: C0 is the initial concentration represented as the peak area ratio (test compound peak area/internal standard peak area); Ct is the concentration at t represented as the area ratio (test compound peak area/internal standard peak area); e is the base of the natural logarithm t is the time (min); k is the elimination rate constant (min^−1). The half-life (t1/2, min) is calculated using the following equation: […]
where: k is the elimination rate constant (min^−1). The in vitro intrinsic clearance (CLint, mL/min/million cells) is calculated using the following equation: […]
where: t1/2 is the half-life; n is the number of cells per mL.

[2] = Cytotoxicity in uninfected MT2 cells, XTT colorimetric assay; type: cell-based; conditions: human, day 4, XTT, read-out: cytotoxic CC50
Experimental: Compound cytotoxicity and the corresponding CC50 values were determined using the same protocol as described in the antiviral assay except that uninfected cells were used. Cytotoxicity was assessed on day 4 in uninfected MT2 cells by using an XTT (2,3-bis[2-Methoxy-4-nitro-5-sulfophenyl]-2H-tetrazolium-5-carboxanilide inner salt)-based colorimetric assay (Sigma-Aldrich, St Louis, Mo.).

`Cn1nc(NS(C)(=O)=O)c2c(Cl)ccc(-n3c([C@H](Cc4cc(F)cc(F)c4)NC(=O)Cn4nc(C(F)F)c5c4C(F)(F)[C@@H]4C[C@H]54)nc4nc(OCCC(C)(F)F)ccc4c3=O)c21` (atropisomer, axis not shown; (P)) [Example 1, N—((S)-1-((3P)-3-(4-chloro-1-methyl-3-(methylsulfonamido)-1H-indazol-7-yl)-7-(3,3-difluorobutoxy)-4-oxo-3,4-dihydropyrido[2,3-d]pyrimidin-2-yl)-2-(3,5-difluorophenyl)ethyl)-2-((3bS,4aR)-3-(difluoromethyl)-5,5-difluoro-3b,4,4a,5-tetrahydro-1H-cyclopropa[3,4]cyclopenta[1,2-c]pyrazol-1-yl)acetamide] gave a clearance ([1]; IV 1 mg/kg) of 3.6 mL/min/kg, a half-life ([1]; IV 1 mg/kg) of 10.2 h and a Vd ([1]; IV 1 mg/kg, read-out: Vss) of 1.76 L/kg. The bioavailability ([1]; oral gavage 5 mg/kg solution vs IV 1 mg/kg) was 57.5%, the EC50 (recombinant NL4-3 virus) was 0.019 ± 0.006 nM and the “intrinsic clearance in human hepatocytes” value (human hepatocytes) was “less than 0.2 mL/min/g liver”. For the same molecule, the “half-life in human hepatocytes” value (human hepatocytes; 0.5×10^6 cells per milliliter) was “could not be measured”, the “parent remaining after incubation in human hepatocytes” value (human hepatocytes; 240 minute incubation) was “no metabolism was measurable” and the CC50 at 4 days [2] was over 10000 nM.
